Read-outs that look alike come from different tables or passages of the source. Values belong to the molecule of their own block, whether it stands above or below them.
Columns and labels:
SW1573 [1] = assay: Drug combination synergy assay (inhibition matrix); type: cell-based; conditions: Homo sapiens
Experimental: The synergy finder codes were used to determine the synergy between drugs for 48 possible combinations. The codes were run using the R-platform and synergy was calculated and represented as the synergy landscape.
Drug Combination Synergy Assay: For combination index (CI) calculation, SW1573 and H23 incured cell lines were seeded in 96-well plate with 5000 cells per well. Three biological replicates (three 96-well plates for each drug combination) were used. […] The drugs were used in linear dilution series with dilution factor of 2. […] Further, R package called SynergyFinder (He et al., 2018) was used to find the nature of drug-drug interaction (i.e. if they work in synergy or antagonistically or non-interactively). For this purpose, the drug response matrix is supplied to the mentioned package, which then uses several models namely Highest Single Agent (Berenbaum, 1989), Loewe additivity (Loewe, 1953), Bliss independence (Bliss, 1939) and Zero Interaction Potency (Yadav et al., 2015) to quantify the degree of drug synergy. The dose response matrix was used to calculate individual CI values for IC30, IC50 and IC70 drug treatments. The output values were used to plot isobolograms using the following formula. CI=IC50 (A) pair IC50 (A)+IC50 (B) pair IC50 (B)

SW1573 [2] = assay: Cell proliferation assay, 2D (IncuCyte live cell imaging); type: cell-based; conditions: SW1573
Experimental: The cells were seeded at density of 10000 cells/well 12 hours prior to the experiment. Once the cells attached to the plate the media was removed and the drugs were added to the cells. […] Cell proliferation was observed using the IncuCyte Live Imaging System for 72 hrs.
Knockdown of ITGB4 (Cat #SR302473C) at the mRNA level in the SW1573 cells was done using siRNAs purchased from OriGene Technologies (Rockville, Md., USA). JetPRIME transfection reagent (Polyplus Transfection, Illkirch, France) was used to transfect the siRNAs according to the manufacturer's protocol. Cells were seeded in 6-well plates (200,000 cells/well) and allowed to adhere overnight. Next day, 10 nM siRNA was transfected with 4 μl jetPRIME reagent in complete growth medium for each well. Next day cells were trypsinized, counted and re-plated on the 96 well plate for cell proliferation and drug assay. […] Cell growth medium was changed the next day and expression was detected 72 h post-transfection by immunoblotting.
(§1) The cells grown in 2D cultures were treated with various concentrations of the drug, and the effect on cell proliferation was determined in real time using the live cell proliferation assay (IncuCyte, Essen Bioscience, Inc.) as described in the methods.
(§2) Cell proliferation and apoptosis assay: Cell proliferation assays were performed using cell lines stably transfected with NucLight Red Lentivirus (Essen BioScience) to accurately visualize and count the nucleus of a single cell. Cells were seeded on a 96-well plate and allowed to adhere for 24 h. Test compounds were added at indicated concentrations. Caspase-3/7 Green Apoptosis Reagent (Essen BioScience) was also added as a green fluorescent indicator of caspase3/7-mediated apoptotic activity. To monitor cell proliferation and apoptosis over time, the plate was placed in the IncuCyte S3 Live Cell Imaging System (Essen BioScience) and images were acquired every 2 hours. Data analysis was generated by the IncuCyte software using a red fluorescence mask to accurately count each cell nucleus and a green fluorescence mask to measure apoptosis over time. 3D spheroid assay 3D spheroid experiments were performed using cell lines stably transfected with NucLight Red Lentivirus (Essen BioScience) to visualize red fluorescence as an indicator of cell viability. Cells were seeded on a 96-well ultra-low attachment plate and allowed to form spheroids overnight. Drug treatment was added as indicated along with Cytotox Green Reagent (Essen BioScience), used as a green fluorescence indicator of cell death due to loss of cell membrane integrity. To monitor cell proliferation and apoptosis over time, the plate was placed in the IncuCyte S3 Live Cell Imaging System (Essen BioScience) and images were acquired every 2 hours. Data analysis was generated by the IncuCyte software using a red fluorescence mask to accurately measure intensity and area of red fluorescence, indicating spheroid viability and a green fluorescence mask, indicating cell death. Cell cycle analysis.

H23 cells = assay: Zebrafish larvae H23 xenotransplant; type: in vivo; conditions: sotorasib 12 μM, adagrasib 2 μM, carfilzomib 1.6 mM as printed; Day 3
[3] = tested on: cisplatin-refractory KRAS mutant NSCLC cells; assay: Sensitization of cisplatin-refractory cells; type: cell-based; conditions: read-out: IC50 to sensitize cisplatin-refractory KRAS mutant NSCLC cells
Experimental: Furthermore, treating NSCLC cell lines that express high levels of ITGB4 and PXN (H358 and H2009) were treated with carfilzomib, H358 cells carrying the KRAS G12C mutation were more sensitive than H2009 cells harboring the G12A mutation. […] Taken together, these observations indicate that treating patients with carfilzomib in addition to targeting mutant KRAS will be more efficacious than carfilzomib treatment alone.

SW1573 cells = assay: Zebrafish larvae SW1573 xenotransplant; type: in vivo
Experimental: The inventors microinjected SW1573 cells into the perivitelline space of 48 hour post-fertilization (hpf) zebrafish larvae.

SW1573 NSCLC cells = assay: Mouse SW1573 xenograft; type: in vivo, Athymic nude nu/nu mice
Experimental: Mouse xenograft studies. Athymic nude nu/nu mice were obtained from Charles River, Wilmington, Mass., and were acclimated for a week before beginning the experiment. All animal experiments were carried out in accordance with a protocol approved by the Institutional Animal Care and Use Committee (IACUC #16004). […] All 40 animals were injected with 1×10^6 SW1573 cells suspensions in 100 μl of PBS, subcutaneously into one flank of each mouse. At the same time, animals were randomized into treatment groups. Treatment was started 12 days after the SW1573 NSCLC cells implantation to see palpable tumor growth. Treatments were given to mice via oral gavage twice a week for 8 weeks. Animals were examined daily for signs of tumor growth. Tumors were measured in two dimensions using calipers and body weights were recorded. Photographs of animals were taken at day 1, day 7, day 14, day 21, day 28, day 35, day 42, day 49, and day 56 after treatment. Photographs of tumors were also taken at day 56 after treatment. At the end of the study, the mice were euthanized by CO2 asphyxiation followed by cervical dislocation. The tumor weights were compared between groups using an unpaired Student's t-test. A portion of the tumor was fixed in 10% buffered formaldehyde solution and paraffin-embedded for immuno-staining or was snap-frozen in liquid nitrogen for further molecular analysis such as western blotting.

SW1573 spheroids = assay: 3D spheroid assay; type: cell-based; conditions: SW1573
Experimental: (§3) The activation of apoptosis is marked with the increase in green fluorescence intensity.
(§4) To determine the sensitivities of the same cells in 3D, mKate expressing cells were used to generate spheroids. Spheroids were monitored in real time using the IncuCyte live cell imaging system (FIG. 1B).
as §2

H358 spheroids = assay: 3D spheroid assay; type: cell-based; conditions: H358
Experimental: as §3, §4, §2

H23 spheroids = assay: 3D spheroid assay; type: cell-based; conditions: H23
Experimental: as §3, §4, §2

H23 = assay: Cell proliferation assay, 2D (IncuCyte live cell imaging); type: cell-based; conditions: H23
Experimental: as §1, §2

H358 = assay: as above; type: cell-based; conditions: H358
Experimental: as §1, §2

SMILES: C[C@@H]1C[C@H](C)CN(S(=O)(=O)c2ccc3c(c2)C(=NO)c2cc(S(=O)(=O)N4C[C@H](C)C[C@H](C)C4)ccc2C3=NO)C1 [tegatrabetan]
inhibition at 0.01 µM (SW1573 [1]; tegatrabetan 10 nM, read-out: inhibition of cell growth): 10%

SMILES: CC(C)C[C@H](NC(=O)[C@H](CCc1ccccc1)NC(=O)CN1CCOCC1)C(=O)N[C@@H](Cc1ccccc1)C(=O)N[C@@H](CC(C)C)C(=O)[C@@]1(C)CO1 [carfilzomib]
effect on cell growth (SW1573 [2]; 20 nM): slows cell growth
inhibition at 0.01 µM (SW1573 [1]; carfilzomib 10 nM, 72 hours, read-out: inhibition of growth): 60%
reduction of tumor growth (median) (H23 cells): ~82%
IC50 [3]: 0.0008 µM
most effective dose, drug alone (obliterates SW1573 cells) (SW1573 cells): 1.6 µM
tumor weight compared to control group (SW1573 NSCLC cells; end of study (day 56)): significant reduction in tumor weight
reduction in tumor area (SW1573 NSCLC cells; sotorasib 10 mg/kg, adagrasib 10 mg/kg, carfilzomib 2 mg/kg, oral gavage twice a week, day 56): ~56%

IC50 (SW1573 [2]; Homo sapiens, 72 hours, Example 6): > 10 µM
SMILES: C=CC(=O)N1CCN(c2ncnc3c(F)c(-c4c(O)cccc4F)c(Cl)cc23)CC1 [ARS1620, (S)-1-(4-(6-chloro-8-fluoro-7-(2-fluoro-6-hydroxyphenyl)quinazolin-4-yl)piperazin-1-yl)prop-2-en-1-one]
inhibition at 10 µM (SW1573 [2]; Homo sapiens, 10 μM, 72 hours, read-out: inhibition of proliferation / cell growth): 20%
inhibition at 10 µM (SW1573 spheroids; Homo sapiens, 10 μM, read-out: inhibition of spheroid area / reduction in spheroid growth): ~25%
reduction of spheroid mean red intensity (SW1573 spheroids; 5 μM): 40%
reduction of spheroid mean red intensity (H358 spheroids; 5 μM): 80%
reduction in spheroid growth (H358 spheroids; 10 μM): 70%
reduction of spheroid mean red intensity (H23 spheroids; 5 μM): 50%
reduction in spheroid growth (H23 spheroids; 10 μM): 70%
inhibition of cell growth (H23; at 1.2 (unit not given)): 30%
inhibition at 5 µM (H23; Homo sapiens, NCI-H23, 5 μM, read-out: inhibition of cell growth): 50%
inhibition at 10 µM (H23; Homo sapiens, NCI-H23, 10 μM, 72 hours, read-out: inhibition of proliferation / cell growth): 80%
IC50 (H23; Homo sapiens, NCI-H23, 72 hours, Example 6): 7.6 µM
inhibition of cell growth (H358; 2.5, 5 or 10 μM): 50%
inhibition at 1.2 µM (H358; Homo sapiens, NCI-H358, 1.2 μM, 72 hours, read-out: inhibition of cell growth): 40%

SMILES: C=C(F)C(=O)N1CCN(c2nc(OC[C@@H]3CCCN3C)nc3c2CCN(c2cccc4cccc(Cl)c24)C3)C[C@@H]1CC#N [adagrasib]
better viability compared to untreated spheroids (SW1573 spheroids; 0.6 μM): 50%
spheroids inviable (red mean intensity, last time point) (H358 spheroids; 0.6 μM): 80%
spheroids inviable (red mean intensity, last time point) (H23 spheroids; 0.6 μM): 40%

— US20230285498A1, “TREATMENTS FOR CANCERS HAVING KRAS MUTATIONS” (City of Hope, priority 2020, published 2023)
